Laboratory results from ChEMBL document CHEMBL4673406, “Discovery and Preclinical Evaluation of BMS-986242, a Potent, Selective Inhibitor of Indoleamine-2,3-dioxygenase 1” (ACS Med Chem Lett, 2021).

How the values were obtained:
[1] = biological target: T1, Indoleamine 2,3-dioxygenase 1 (Homo sapiens, UniProt P14902); test: Inhibition of IDO1 in IFNgamma/LPS-stimulated human whole blood preincubated for 4 hrs followed by IFNgamma/LPS stimulation and incubated for 18 hrs by Rapid-fire mass spectrometry analysis; assay type: tissue-based
[2] = biological target: Indoleamine 2,3-dioxygenase 1 (Mus musculus, UniProt P28776); test: Inhibition of IDO1 in IFNgamma-stimulated mouse M109 cells preincubated for 2 hrs followed by IFNgamma stimulation and measured after 18 hrs by; assay type: cell-based
[3] = biological target: T1, Indoleamine 2,3-dioxygenase 1; test: Inhibition of IDO1 in IFNgamma-stimulated human HeLa cells preincubated for 2 hrs followed by IFNgamma stimulation and measured after 18 hrs by
[4] = in vitro; conditions: mouse, liver microsomes
Description: Metabolic stability in mouse liver microsomes assessed as parent compound remaining at 0.5 uM measured after 10 mins

[5] = in vitro; conditions: human, liver microsomes
Description: Metabolic stability in human liver microsomes assessed as parent compound remaining at 0.5 uM measured after 10 mins

[6] = Aqueous solubility of the compound at pH 6.5; assay type: physicochemical; conditions: buffer
[7] = Solubility of the compound at pH 6.5 to 7.4; assay type: physicochemical; conditions: buffer
[8] = biological target: Indoleamine 2,3-dioxygenase 1 (Mus musculus) (UniProt P28776); test: In vivo inhibition of IDO1 in nu/nu mouse xenografted with human SK-OV-3 cells assessed as reduction in kynurenine level at 60 mg/kg, po qd by HPLC-MS/MS analysis relative to control; assay type: functional, organism-based
[9] = in vivo; conditions: nu/nu, mouse, tumor, po, 60 mg/kg
Description: AUC (0 to 24 hrs) in nu/nu mouse xenografted with human SK-OV-3 cells measured in tumor at 60 mg/kg, po qd by uHPLC-MS/MS analysis

[10] = AUC (0 to 24 hrs) in nu/nu mouse xenografted with human SK-OV-3 cells measured in tumor at 100 mg/kg, po bid by uHPLC-MS/MS analysis; assay type: ADME, organism-based; design: time < 24 hr, route oral, dose 100 mg/kg

T1 sequence (P14902 whole entry): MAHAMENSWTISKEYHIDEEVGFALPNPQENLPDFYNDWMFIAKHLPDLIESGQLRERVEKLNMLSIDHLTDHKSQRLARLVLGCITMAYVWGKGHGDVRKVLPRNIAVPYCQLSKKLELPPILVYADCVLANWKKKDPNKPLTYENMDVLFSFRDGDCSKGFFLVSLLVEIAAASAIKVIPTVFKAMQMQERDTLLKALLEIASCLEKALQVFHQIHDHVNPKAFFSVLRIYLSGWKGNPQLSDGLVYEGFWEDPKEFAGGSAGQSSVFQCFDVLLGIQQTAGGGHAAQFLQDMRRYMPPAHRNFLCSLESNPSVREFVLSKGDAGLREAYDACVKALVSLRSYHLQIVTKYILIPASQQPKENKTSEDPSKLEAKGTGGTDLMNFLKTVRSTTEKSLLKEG
Chain of Indoleamine 2,3-dioxygenase 1 (Mus musculus, UniProt P28776) (P28776 whole entry): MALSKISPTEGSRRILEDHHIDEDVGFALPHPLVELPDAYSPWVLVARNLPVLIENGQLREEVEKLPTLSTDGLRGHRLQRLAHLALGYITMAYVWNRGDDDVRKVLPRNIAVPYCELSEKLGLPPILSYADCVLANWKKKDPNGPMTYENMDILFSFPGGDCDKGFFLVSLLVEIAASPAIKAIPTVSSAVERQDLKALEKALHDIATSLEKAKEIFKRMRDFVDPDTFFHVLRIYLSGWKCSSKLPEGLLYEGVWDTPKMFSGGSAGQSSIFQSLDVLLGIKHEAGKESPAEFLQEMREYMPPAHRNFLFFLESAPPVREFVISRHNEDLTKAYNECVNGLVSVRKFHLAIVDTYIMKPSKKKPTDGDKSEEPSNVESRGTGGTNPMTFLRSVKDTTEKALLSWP
Chain of Indoleamine 2,3-dioxygenase 1 (Mus musculus) (P28776 whole entry, looked up): as the sequence (P28776 whole entry) above

SMILES	IC50 [1]	IC50 [2]	IC50 [3]	remaining at 10 min, 0.5 µM [4]	remaining at 10 min, 0.5 µM [5]	solubility [6]	solubility [7]	inhibition [8]	AUC at 24 h [9]	AUC at 24 h [10]
C[C@@H](NS(=O)(=O)c1ccc(Cl)cc1)[C@H]1CC[C@@H](c2ccnc3ccc(F)cc32)CC1	484 nM	> 1000 nM	> 1000 nM	< 1%	29%	–	–	–	–	–
COc1ccc(C(=O)N[C@H](C)[C@H]2CC[C@@H](c3ccnc4ccc(F)cc43)CC2)cc1N1CCOCC1	35 nM	20 nM	7 nM	4%	2%	< 1 µg/mL	–	–	–	–
C[C@@H](NC(=O)C12CCC(Cl)(CC1)CC2)[C@H]1CC[C@@H](c2ccnc3ccc(F)cc32)CC1	579 nM	56 nM	–	10%	9%	–	–	–	–	–
C[C@@H](c1nc2ccc(Cl)cc2[nH]1)[C@H]1CC[C@@H](c2ccnc3ccc(F)cc32)CC1	28 nM	12 nM	4 nM	12%	48%	–	–	–	–	–
C[C@@H](NC(=O)c1ccccc1Cl)[C@H]1CC[C@@H](c2ccnc3ccc(F)cc32)CC1	135 nM	215 nM	12 nM	7%	21%	–	–	–	–	–
C[C@@H](NCc1ccc(Cl)cc1)[C@H]1CC[C@@H](c2ccnc3ccc(F)cc32)CC1	> 1000 nM	> 1000 nM	745 nM	2%	34%	–	–	–	–	–
C[C@@H](NC(=O)c1cccc(Cl)c1)[C@H]1CC[C@@H](c2ccnc3ccc(F)cc32)CC1	97 nM	48 nM	7 nM	9%	39%	–	–	–	–	–
C[C@@H](NC(=O)c1ccc(-c2ccccc2)cc1)[C@H]1CC[C@@H](c2ccnc3ccc(F)cc32)CC1	22 nM	3 nM	2 nM	70%	59%	–	< 1 µg/mL	–	–	–
C[C@@H](NC(=O)Cc1ccc(Cl)cc1)[C@H]1CC[C@@H](c2ccnc3ccc(F)cc32)CC1	779 nM	651 nM	125 nM	2%	8%	–	–	–	–	–
C[C@@H](NC(=O)Nc1ccc(Cl)cc1)[C@H]1CC[C@@H](c2ccnc3ccc(F)cc32)CC1	280 nM	67 nM	20 nM	14%	52%	–	–	–	–	–
C[C@@H](CNc1ccc(Cl)cc1)[C@H]1CC[C@@H](c2ccnc3ccc(F)cc32)CC1	44 nM	62 nM	7 nM	80%	80%	–	–	–	–	–
C[C@@H](C(=O)Nc1ccc(Cl)cc1)[C@H]1CC[C@@H](c2ccnc3ccc(F)cc32)CC1	–	–	–	31%	84%	–	–	61%	34.9 µM·h	–
C[C@@H](C(=O)NC1CCCCC1)[C@H]1CC[C@@H](c2ccnc3ccc(F)cc32)CC1	470 nM	287 nM	18 nM	< 1%	< 1%	–	–	–	–	–
C[C@H](NC(=O)[C@H](C)[C@H]1CC[C@@H](c2ccnc3ccc(F)cc32)CC1)c1ccc(Cl)cc1	> 1000 nM	870 nM	67 nM	5%	19%	–	–	–	–	–
NS(=O)(=O)NCCNc1nonc1C(=NO)Nc1ccc(F)c(Br)c1 [EPACADOSTAT]	–	–	–	–	–	–	–	–	–	48 µM·h
COc1ncc(NC(=O)[C@H](C)[C@H]2CC[C@@H](c3ccnc4ccc(F)cc43)CC2)cn1	80 nM	92 nM	10 nM	51%	73%	–	–	–	–	–
C[C@@H](CNC(=O)c1ccc(Cl)cc1)[C@H]1CC[C@@H](c2ccnc3ccc(F)cc32)CC1	158 nM	772 nM	261 nM	32%	56%	–	–	–	–	–
C[C@@H](NC(=O)C1CCCCC1)[C@H]1CC[C@@H](c2ccnc3ccc(F)cc32)CC1	294 nM	86 nM	12 nM	5%	6%	–	–	–	–	–
